Assay results taken from patent US20100249418A1, “NOVEL COMPOUND HAVING AFFINITY FOR AMYLOID” (NIHON MEDI-PHYSICS CO., LTD., priority 2007, published 2010).
Read-outs that look alike come from different tables or passages of the source.

Experiments:
[1] = reported in WO03/106439; cited from earlier work
[2] = test system: amyloid; settings: [125I]-labeled compounds, cited from earlier work
[3] = [125I]-labeled, normal mice, cited from earlier work; for Transfer into brain: 2 minutes after administration
[4] = test system: Salmonella typhimurium TA98 and TA100; assay: Reverse mutation test (Ames test), overall statement for both strains; assay type: cell-based
Experimental: (§1) In order to examine gene mutagenicity of Compound 5, reverse mutation test using Salmonella typhimurium TA98 and TA100 (hereinafter referred to as Ames test) was conducted.
(§2) The test was conducted without addition of S9mix and with addition of S9mix. Dimethylsulfoxide (hereinafter referred to as DMSO) was used as a negative control. A positive control was 2-(2-furyl)-3-(5-nitro-2-furyl)acrylamide (hereinafter referred to as AF-2) in case S9mix was not added, and 2-aminoanthracene (hereinafter referred to as 2-AA) in case S9mix was added.
(§3) As a sample solution to be added to a test plate, a solution at maximum concentration in which Compound 5 was dissolved in DMSO (concentration of compound: 50 mg/mL) and a sample solution to be added to a test plate at each concentration in which a solution at maximum concentration was diluted with DMSO were prepared. […]

[5] = Measurement of partition coefficient based on the octanol extraction method (log Poctanol); assay type: physicochemical; settings: octanol / 10 mmol/L phosphate buffer (pH 7.4)
Experimental: Partition coefficients based on the octanol extraction method (hereinafter referred to as log Poctanol) were measured, which are generally known as an indicator of permeability of compounds through the blood-brain barrier (hereinafter referred to as BBB).
Each diethyl ether solution of Compound 1, Compound 2, Compound 3 and Compound 4 as well as a diethyl ether solution of [^123I]-IMPY were each diluted with 10 mg/mL ascorbic acid-containing physiological saline solution, and adjusted to a radioactive concentration of 27-30 MBq/mL. To 2 mL of octanol, 10 μL each of these solutions was added, and 2 mL of 10 mmol/L phosphate buffer (pH 7.4) was added, followed by stirring for 30 seconds. After each mixture was centrifuged (2000 rpm×60 min.) with a low-speed centrifuge (type: CTD4, manufactured by Hitachi Koki Co., Ltd), the octanol layer and the water layer were sampled each in an amount of 1 mL, and subjected to measurement of radioactivity count with an autowell gamma system (Type: ARC-301B, manufactured by Aloka). Using the obtained radioactivity count, log Poctanol was calculated in accordance with the equation (1).

[6] = Measurement of transferability into brain and clearance (radioactive accumulation in brain after intravenous injection); assay type: in vivo, male Wistar rats; settings: rats; for Radioactive accumulation per unit weight, After 2 min. / Radioactive accumulation per unit weight, After 5 min. / Radioactive accumulation per unit weight, After 30 min. / Radioactive accumulation per unit weight, After 60 min.: brain; for Radioactive accumulation per unit weight, After 2 min.: 2 min after injection; for Radioactive accumulation per unit weight, After 5 min.: 5 min after injection; for Radioactive accumulation per unit weight, After 30 min.: 30 min after injection; for Radioactive accumulation per unit weight, After 60 min.: 60 min after injection; for Transferability to brain and clearance from brain (in words): 2 to 60 min
Experimental: Using Compound 1, Compound 2, Compound 3 and Compound 4, a time course change of radioactive accumulation in brain of male Wistar rats (7-week old) was measured.
Compound 1 in 10 mg/mL ascorbic acid-containing physiological saline solution (27 MBq/mL in radioactive concentration), Compound 2 in 10 mg/mL ascorbic acid-containing physiological saline solution (27 MBq/mL in radioactive concentration), Compound 3 in 10 mg/mL ascorbic acid-containing physiological saline solution (28 MBq/mL in radioactive concentration) and Compound 4 in 10 mg/mL ascorbic acid-containing physiological saline solution (30 MBq/mL in radioactive concentration) were prepared to obtain sample solutions. The sample solutions were injected under thiopental anesthesia into the tail vein of the male Wistar rats (7-week old) (dosage: 0.05 mL, dosed radioactivity: 1.4-1.5 MBq equivalent). The rats were sacrificed by bleeding from abdominal artery, and brains were removed and subjected to measurement of mass of brains and further subjected to measurement of radioactivity (hereinafter referred to as A in this Example) with a single channel analyzer (detector type: SP-20 manufactured by OHYO KOKEN KOGYO Co., Ltd.) 2, 5, 30 and 60 minutes after the injection. Further, the radioactivity level of the rest of the whole body was measured in the same manner as above (hereinafter referred to as B in this Example). Using these measurement results, radioactive accumulation per unit weight of brain (% ID/g) at the respective time points of dissection was calculated in accordance with the following formula (2) (Examples 19 to 22).
Separately, [^123I]-IMPY in 10 mg/mL ascorbic acid-containing physiological saline solution (16 MBq/mL in radioactive concentration) was prepared, the same procedure as above was conducted, and radioactive accumulation per unit weight of brain (% ID/g) at the respective time points of dissection was calculated (Comparative Example 1).
Meanwhile, three animals were used for all Examples and Comparative Example 2 at the respective time points.

[7] = [11C]-labeled, rats; cited from earlier work
[8] = test system: Salmonella typhimurium TA98; assay: Reverse mutation test (Ames test), TA98; assay type: cell-based
Experimental: as §1, §2, §3

[9] = test system: Salmonella typhimurium TA100; assay: Reverse mutation test (Ames test), TA100; assay type: cell-based
Experimental: as §1, §2, §3

| Compound | logPoctanol value [5] | Radioactive accumulation per unit weight, After 2 min. [6] [% ID/g] | Radioactive accumulation per unit weight, After 5 min. [6] [% ID/g] | Radioactive accumulation per unit weight, After 30 min. [6] [% ID/g] | Radioactive accumulation per unit weight, After 60 min. [6] [% ID/g] | Transferability to brain and clearance from brain (in words) [6] | other results |
| --- | --- | --- | --- | --- | --- | --- | --- |
| CN(C)c1ccc(-c2cn3cc(I)ccc3n2)cc1 [IMPY, 6-iodo-2-[4′-(N,N-dimethylamino)phenyl]imidazo[1,2-a]pyridine] | – | – | – | – | – | – | Reverse mutation test result [1]: positive; Transfer to brain and accumulation at amyloid ([2]; after administration): transferring to brain and accumulating at amyloid after administration; Clearance from normal tissues [2]: rapid clearance from normal tissues |
| CN(C)c1ccc(/C=C/c2ccc(I)cc2)cc1 [m-I-SB, (E)-4-dimethylamino-4′-iodostilbene] | – | – | – | – | – | – | Transfer into brain [3]: transferred into brain; Clearance from normal tissues [3]: insufficient in clearance from normal tissues |
| 2-[4′-(2″-hydroxyethoxy)phenyl]-6-[^123I]iodo-3-methylimidazo[1,2-a]pyridine [Compound 2] | 2.2 | 0.57 | 0.36 | 0.05 | 0.01 | excellent transferability to brain and rapid clearance from brain | Number of reverse mutation colonies relative to the group treated with the negative control ([4]; regardless of addition of S9mix and the addition amount of sample, negative control DMSO): less than two times |
| 3-cyano-2-[4′-(2″-hydroxyethoxy)phenyl]-6-[^123I]iodoimidazo[1,2-a]pyridine [Compound 4] | 3.0 | 0.82 | 0.67 | 0.18 | 0.04 | excellent transferability to brain and rapid clearance from brain | – |
| 2-(4′-hydroxyphenyl)-6-[^123I]iodo-3-methylimidazo[1,2-a]pyridine [Compound 3] | 2.5 | 0.50 | 0.34 | 0.05 | 0.01 | excellent transferability to brain and rapid clearance from brain | – |
| Cc1c(-c2ccc(F)cc2)nc2ccc([123I])cn12 [Compound 1, 2-(4′-fluorophenyl)-6-[^123I]iodo-3-methylimidazo[1,2-a]pyridine] | 2.3 | 0.91 | 0.60 | 0.08 | 0.03 | excellent transferability to brain and rapid clearance from brain | – |
| CNc1ccc(/C=C/c2ccc(O)cc2)cc1 [SB-13, (E)-4-methylamino-4′-hydroxystilbene] | – | – | – | – | – | – | Clearance from normal tissues [7]: it cannot be said that the clearance is sufficiently fast |
| CC(=C(C#N)C#N)c1ccc2cc(N(C)CCF)ccc2c1 [FDDNP, 2-(1-{6-[(2-fluoroethyl)(methyl)amino]-2-naphthyl}ethylidene)malononitrile] | – | – | – | – | – | – | Reverse mutation test result [1]: positive |
| CN(C)c1ccc(-c2nc3ccc(I)cc3s2)cc1 [TZDM, 6-iodo-2-[4′-(N,N-dimethylamino)phenyl]benzothiazole] | – | – | – | – | – | – | Transfer into brain [3]: transferred into brain; Clearance from normal tissues [3]: insufficient in clearance from normal tissues |
| CN(C)c1ccc(-c2cn3cc([123I])ccc3n2)cc1 [[^123I]-IMPY, reference compound] | 1.9 | 1.19 | 0.97 | 0.23 | 0.09 | excellent transferability to brain and rapid clearance from brain | – |
| CN(C)c1ccc(-c2nc3ccc(I)cc3o2)cc1 [IBOX, 6-iodo-2-[4′-(N,N-dimethylamino)phenyl]benzoxazole] | – | – | – | – | – | – | Transfer into brain [3]: transferred into brain; Clearance from normal tissues [3]: insufficient in clearance from normal tissues |
| Cc1c(-c2ccc(OCCO)cc2)nc2ccc(I)cn12 [Compound 5, 2-[4′-(2″-hydroxyethoxy)phenyl]-6-iodo-3-methylimidazo[1,2-a]pyridine] | – | – | – | – | – | – | Ames test judgement (mutagenicity) ([4]; TA98 and TA100, with and without S9mix): negative in the Ames test and has no mutagenicity; Mutagenicity, TA98, with addition of S9mix ([8]; with addition of S9mix): Negative; Mutagenicity, TA98, without addition of S9mix ([8]; without addition of S9mix): Negative; Mutagenicity, TA100, with addition of S9mix ([9]; with addition of S9mix): Negative; Mutagenicity, TA100, without addition of S9mix ([9]; without addition of S9mix): Negative |
